From ChEMBL document CHEMBL4376889, “Discovery of a Brain-Penetrant ATP-Competitive Inhibitor of the Mechanistic Target of Rapamycin (mTOR) for CNS Disorders” (J Med Chem, 2020) come the findings set out here.

In brackets after ≈: the same amount, converted by molar mass. Activity calls are given as the source filed them. No cut-off for these calls is given here. Some results are limits rather than exact numbers.

One series deals with Cytochrome P450 3A4 (Homo sapiens, UniProt P08684). The experiment in a line: Inhibition of CYP3A4 (unknown origin). It counts as ADME.
Series [1] concerns the target T1, Serine/threonine-protein kinase mTOR (Mus musculus, UniProt Q9JLN9). The experiment in a line: Inhibition of mTOR in mouse MEF cells harboring TSC1 deletion mutant assessed as reduction in PS6 phosphorylation incuabted for 2 hrs alexa fluor 594 and Hoechst staining based fluorescence assay. It counts as cell-based.
Series [2] can be described thus: Solubility of compound at pH 6.8. It counts as physicochemical. As to conditions: buffer.
Series [3] in a line: Stability in rat liver microsomes assessed as intrinsic clearance at 1 uM incubated for 30 mins by LC-MS/MS analysis. It counts as ADME, Microsome. The settings on record: read-out: CLH. (Microsomes from liver hold many membrane-bound enzymes, among them those of drug oxidation.)
In a further series the test system is MDR1. Description: Efflux ratio of permeability from basolateral to apical over apical to basolateral side in MDCK-MDR1 cells. It counts as ADME, cell-based, Canis lupus familiaris. As to conditions: dog.
Series [4] addresses T1, Serine/threonine-protein kinase mTOR. Description: Inhibition of mTOR in mouse TSC1-/- MEF cells assessed as inhibition of S6 Ser240/244 phosphorylation incubated for 2 hrs by fluorescence based assay. It counts as cell-based.
Series [5] has as its target Phosphatidylinositol 4,5-bisphosphate 3-kinase catalytic subunit alpha isoform (Homo sapiens, UniProt P42336). Description: Inhibition of PI3Kalpha (unknown origin).
The target of series [6] is Phosphatidylinositol 4,5-bisphosphate 3-kinase catalytic subunit beta isoform (Homo sapiens, UniProt P42338). The experiment in a line: Inhibition of PI3Kbeta (unknown origin).
Series [7] has as its target Phosphatidylinositol 4,5-bisphosphate 3-kinase catalytic subunit gamma isoform (Homo sapiens, UniProt P48736). The experiment in a line: Inhibition of PI3Kgamma (unknown origin).
Series [8] has as its target Phosphatidylinositol 4,5-bisphosphate 3-kinase catalytic subunit delta isoform (Homo sapiens, UniProt O00329). The experiment in a line: Inhibition of PI3Kdelta (unknown origin).
Another series addresses Cytochrome P450 2D6 (Homo sapiens, UniProt P10635). Description: Inhibition of CYP2D6 (unknown origin). It counts as ADME.
The target in the next series is Cytochrome P450 2C9 (Homo sapiens, UniProt P11712). The experiment in a line: Inhibition of CYP2C9 (unknown origin). The format is ADME.
Series [9] is described as follows: Stability in mouse liver microsomes assessed as intrinsic clearance. As to conditions: read-out: CLH. It counts as ADME, Microsome.
The nature of series [10]: Stability in rat liver microsomes assessed as intrinsic clearance. The format is ADME, Microsome. As to conditions: read-out: CLH.
Series [11] in a line: Stability in dog liver microsomes assessed as intrinsic clearance. The format is ADME, Canis lupus familiaris, Microsome. As to conditions: read-out: CLH.
Series [12] can be described thus: Stability in monkey liver microsomes assessed as intrinsic clearance. As to conditions: rhesus monkey, read-out: CLH. It counts as ADME, Macaca mulatta, Microsome.
A short description of series [13]: Stability in human liver microsomes assessed as intrinsic clearance. As to conditions: read-out: CLH. The format is ADME, Microsome.
The subject of series [14] is Cortical neurone. The experiment in a line: Inhibition of overgrowth of mouse primary cortical neuron harboring TSC1 deletion mutant at 20 nM incubated for 7 days by immunofluorescence assay. It counts as functional, cell-based.
In series [15] the test system is Cortical neurone. Description: Inhibition of oversizing of mouse primary cortical neuron harboring TSC1 deletion mutant at 20 nM incubated for 7 days by immunofluorescence assay. The format is functional, cell-based. As to conditions: 168 h.
A further series concerns Mus musculus. Description: Protection against C57BL/6J mouse model of neuronal mTOR hyperactivity assessed as survival rate at 6 mg/kg, ip administered on postnatal day 22 daily and measured on postnatal day 52 (reference value: 48 %). The format is functional.

Chain of Cytochrome P450 3A4 (P08684 whole entry): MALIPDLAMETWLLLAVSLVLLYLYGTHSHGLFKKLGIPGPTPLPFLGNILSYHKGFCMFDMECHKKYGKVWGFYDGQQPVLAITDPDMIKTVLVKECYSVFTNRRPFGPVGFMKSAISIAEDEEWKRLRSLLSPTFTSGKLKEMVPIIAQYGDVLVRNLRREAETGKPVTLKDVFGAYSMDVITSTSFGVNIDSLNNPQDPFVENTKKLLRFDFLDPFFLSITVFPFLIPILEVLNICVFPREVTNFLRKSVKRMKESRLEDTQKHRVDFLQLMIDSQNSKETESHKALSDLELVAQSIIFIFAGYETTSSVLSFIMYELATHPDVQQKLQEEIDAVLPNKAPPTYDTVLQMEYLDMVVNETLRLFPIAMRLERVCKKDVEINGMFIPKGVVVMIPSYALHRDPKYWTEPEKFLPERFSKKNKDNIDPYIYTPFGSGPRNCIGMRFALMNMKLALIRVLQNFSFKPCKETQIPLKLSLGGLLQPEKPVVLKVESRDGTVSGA
Chain of Phosphatidylinositol 4,5-bisphosphate 3-kinase catalytic subunit delta isoform (O00329 whole entry, canonical isoform): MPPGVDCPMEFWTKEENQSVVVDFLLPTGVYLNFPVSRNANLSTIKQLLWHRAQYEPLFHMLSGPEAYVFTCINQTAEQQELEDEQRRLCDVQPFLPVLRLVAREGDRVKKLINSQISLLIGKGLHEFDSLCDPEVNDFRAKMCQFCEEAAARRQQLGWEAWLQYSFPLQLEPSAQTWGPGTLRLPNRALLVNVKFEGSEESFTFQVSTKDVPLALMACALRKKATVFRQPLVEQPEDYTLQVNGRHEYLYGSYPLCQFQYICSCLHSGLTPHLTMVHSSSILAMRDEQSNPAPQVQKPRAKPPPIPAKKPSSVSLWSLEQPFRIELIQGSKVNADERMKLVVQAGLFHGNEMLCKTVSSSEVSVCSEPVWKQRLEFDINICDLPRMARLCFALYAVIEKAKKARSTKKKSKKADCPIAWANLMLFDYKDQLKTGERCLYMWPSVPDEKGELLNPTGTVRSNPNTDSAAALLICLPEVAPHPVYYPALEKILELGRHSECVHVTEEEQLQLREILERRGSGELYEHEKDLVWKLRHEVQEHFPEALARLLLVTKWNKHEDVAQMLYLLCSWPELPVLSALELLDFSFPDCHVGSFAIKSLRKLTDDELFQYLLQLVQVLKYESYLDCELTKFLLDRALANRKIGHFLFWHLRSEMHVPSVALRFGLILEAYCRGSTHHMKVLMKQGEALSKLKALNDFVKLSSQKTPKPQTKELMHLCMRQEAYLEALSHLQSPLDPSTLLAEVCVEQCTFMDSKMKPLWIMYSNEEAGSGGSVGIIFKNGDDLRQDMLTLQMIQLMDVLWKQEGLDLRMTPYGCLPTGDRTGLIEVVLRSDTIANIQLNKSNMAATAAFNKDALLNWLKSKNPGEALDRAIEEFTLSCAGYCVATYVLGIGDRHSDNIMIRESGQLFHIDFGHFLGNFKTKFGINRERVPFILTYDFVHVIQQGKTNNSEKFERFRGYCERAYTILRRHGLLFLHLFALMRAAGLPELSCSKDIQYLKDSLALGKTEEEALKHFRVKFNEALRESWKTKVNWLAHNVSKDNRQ
Chain of Phosphatidylinositol 4,5-bisphosphate 3-kinase catalytic subunit gamma isoform (P48736 whole entry, canonical isoform): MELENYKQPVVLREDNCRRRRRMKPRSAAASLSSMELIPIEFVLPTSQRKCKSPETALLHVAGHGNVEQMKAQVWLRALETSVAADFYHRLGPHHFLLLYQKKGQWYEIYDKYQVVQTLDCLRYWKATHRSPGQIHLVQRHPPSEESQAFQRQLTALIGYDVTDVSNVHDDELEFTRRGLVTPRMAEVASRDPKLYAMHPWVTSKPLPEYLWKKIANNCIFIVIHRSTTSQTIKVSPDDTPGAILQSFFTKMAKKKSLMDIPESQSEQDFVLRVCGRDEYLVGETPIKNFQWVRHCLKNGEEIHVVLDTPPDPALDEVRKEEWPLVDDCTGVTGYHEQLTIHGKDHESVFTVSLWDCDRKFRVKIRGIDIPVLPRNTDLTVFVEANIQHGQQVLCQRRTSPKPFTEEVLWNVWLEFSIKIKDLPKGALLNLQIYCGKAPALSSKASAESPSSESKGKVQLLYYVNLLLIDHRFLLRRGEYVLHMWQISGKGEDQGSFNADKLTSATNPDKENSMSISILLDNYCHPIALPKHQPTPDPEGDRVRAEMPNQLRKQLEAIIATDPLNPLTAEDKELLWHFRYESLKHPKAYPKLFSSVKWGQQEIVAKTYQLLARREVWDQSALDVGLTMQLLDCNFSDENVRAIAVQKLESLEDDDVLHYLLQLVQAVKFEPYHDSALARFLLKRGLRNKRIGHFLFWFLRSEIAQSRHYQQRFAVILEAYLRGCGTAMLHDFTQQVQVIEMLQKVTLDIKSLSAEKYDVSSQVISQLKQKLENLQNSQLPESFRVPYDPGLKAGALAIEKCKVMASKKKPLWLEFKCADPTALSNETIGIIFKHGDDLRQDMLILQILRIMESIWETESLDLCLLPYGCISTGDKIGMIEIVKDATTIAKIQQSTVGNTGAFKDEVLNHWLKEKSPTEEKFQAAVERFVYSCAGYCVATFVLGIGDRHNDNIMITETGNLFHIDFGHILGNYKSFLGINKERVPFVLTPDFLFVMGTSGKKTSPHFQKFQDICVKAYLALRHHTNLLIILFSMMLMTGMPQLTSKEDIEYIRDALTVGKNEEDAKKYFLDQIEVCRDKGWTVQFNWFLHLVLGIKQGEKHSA
Chain of Phosphatidylinositol 4,5-bisphosphate 3-kinase catalytic subunit alpha isoform (P42336 whole entry, canonical isoform): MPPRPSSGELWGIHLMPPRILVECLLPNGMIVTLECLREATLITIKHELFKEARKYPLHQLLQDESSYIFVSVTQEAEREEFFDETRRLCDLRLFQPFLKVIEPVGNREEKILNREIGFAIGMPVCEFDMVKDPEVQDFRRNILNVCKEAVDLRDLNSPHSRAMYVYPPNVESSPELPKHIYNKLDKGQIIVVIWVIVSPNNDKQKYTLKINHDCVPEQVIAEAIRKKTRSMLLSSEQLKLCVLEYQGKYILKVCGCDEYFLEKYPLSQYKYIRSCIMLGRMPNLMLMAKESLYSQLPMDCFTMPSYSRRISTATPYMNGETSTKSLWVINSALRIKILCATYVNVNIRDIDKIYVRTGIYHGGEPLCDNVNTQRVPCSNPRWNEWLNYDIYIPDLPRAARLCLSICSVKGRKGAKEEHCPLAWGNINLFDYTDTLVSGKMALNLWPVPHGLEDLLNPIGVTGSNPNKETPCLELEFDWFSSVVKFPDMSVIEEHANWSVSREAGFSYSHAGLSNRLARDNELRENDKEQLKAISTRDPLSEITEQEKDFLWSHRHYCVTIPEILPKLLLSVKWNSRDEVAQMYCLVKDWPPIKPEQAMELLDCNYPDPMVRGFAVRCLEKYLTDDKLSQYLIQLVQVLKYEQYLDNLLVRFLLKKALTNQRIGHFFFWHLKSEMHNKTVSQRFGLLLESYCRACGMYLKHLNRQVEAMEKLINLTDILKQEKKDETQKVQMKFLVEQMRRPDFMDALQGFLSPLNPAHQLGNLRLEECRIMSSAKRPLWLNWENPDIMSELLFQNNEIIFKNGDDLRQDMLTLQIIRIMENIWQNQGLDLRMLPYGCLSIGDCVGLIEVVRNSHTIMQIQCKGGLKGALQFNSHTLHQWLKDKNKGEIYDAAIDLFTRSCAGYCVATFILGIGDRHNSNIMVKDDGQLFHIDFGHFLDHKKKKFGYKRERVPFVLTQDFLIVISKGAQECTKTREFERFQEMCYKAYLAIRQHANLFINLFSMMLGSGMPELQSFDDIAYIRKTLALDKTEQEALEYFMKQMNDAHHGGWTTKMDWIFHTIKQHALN
Chain of Cytochrome P450 2C9 (P11712 whole entry): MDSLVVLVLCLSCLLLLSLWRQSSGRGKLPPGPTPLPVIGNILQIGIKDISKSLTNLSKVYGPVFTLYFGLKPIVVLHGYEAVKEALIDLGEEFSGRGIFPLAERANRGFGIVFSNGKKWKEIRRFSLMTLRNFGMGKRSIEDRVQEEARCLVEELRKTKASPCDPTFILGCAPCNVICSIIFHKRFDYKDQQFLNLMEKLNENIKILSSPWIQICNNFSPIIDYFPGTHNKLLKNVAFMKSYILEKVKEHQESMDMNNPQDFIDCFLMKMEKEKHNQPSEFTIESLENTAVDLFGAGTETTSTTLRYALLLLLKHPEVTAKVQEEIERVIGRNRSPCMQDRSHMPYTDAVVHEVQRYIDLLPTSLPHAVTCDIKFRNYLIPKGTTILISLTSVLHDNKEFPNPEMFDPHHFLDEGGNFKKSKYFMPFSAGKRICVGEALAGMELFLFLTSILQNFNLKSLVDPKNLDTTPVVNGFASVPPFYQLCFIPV
Chain of Cytochrome P450 2D6 (P10635 whole entry): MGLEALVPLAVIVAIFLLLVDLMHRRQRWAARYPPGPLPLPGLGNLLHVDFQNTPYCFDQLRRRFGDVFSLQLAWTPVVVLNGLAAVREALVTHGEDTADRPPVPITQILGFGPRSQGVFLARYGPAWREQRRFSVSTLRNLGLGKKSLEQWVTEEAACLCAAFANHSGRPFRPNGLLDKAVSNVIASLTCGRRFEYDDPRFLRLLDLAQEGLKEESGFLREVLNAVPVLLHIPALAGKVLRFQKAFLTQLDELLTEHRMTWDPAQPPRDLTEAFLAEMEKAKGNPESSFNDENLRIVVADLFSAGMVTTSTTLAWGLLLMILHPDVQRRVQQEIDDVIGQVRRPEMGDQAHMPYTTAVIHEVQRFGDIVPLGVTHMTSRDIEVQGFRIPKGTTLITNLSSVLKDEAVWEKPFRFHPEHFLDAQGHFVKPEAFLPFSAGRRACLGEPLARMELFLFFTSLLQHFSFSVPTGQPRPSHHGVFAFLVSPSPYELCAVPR

A word on the IC50: it is the midpoint of a concentration-inhibition curve. Regarding `C[C@@H]1COCCN1c1nc(N2CCOC[C@@H]2C)nc2sc(-c3cccc(O)c3)nc12`, at Cytochrome P450 3A4, the K was 0.035 min⁻¹. Besides, in [1], the IC50 was determined as 278 nM.
As usually defined, the solubility is the dissolved amount per volume that the medium holds. At Cytochrome P450 3A4, `C[C@@H]1COCCN1c1nc(N2CCOCC2)nc2sc(-c3cc[nH]n3)nc12` displayed a K of 0.011 min⁻¹. In series [1], the IC50 worked out at 5.3 nM. Further, the solubility in [2] came to 4 µg/mL (≈ 10.3 µM). For the same compound, the microsomal CLint at 1 µM in series [3] came to 24 µL/min/mg.
Regarding `C[C@@H]1COCCN1c1nc(N2CCN(C)CC2)nc2sc(-c3cc[nH]n3)nc12`, the K on Cytochrome P450 3A4 amounted to 0.001 min⁻¹. Also, in series [1], the IC50 worked out at 134 nM. The compound also gave a solubility in series [2] of 191 µg/mL (≈ 477 µM). Besides, the microsomal CLint at 1 µM in series [3] was more than 924 µL/min/mg.
For orientation: efflux ratio means the permeability from basolateral to apical divided by that in the opposite direction, in the common usage. Turning to `C[C@@H]1COCCN1c1nc(N2CCOC[C@@H]2C)nc2[nH]c(-c3cccc4[nH]ccc34)nc12`, the efflux ratio in the series on MDR1 was 0.95. In addition, the IC50 was 38 nM in series [4]; 6600 nM in [5]; more than 10000 nM in series [6]; 6600 nM in series [7]; 800 nM in series [8]; 12800 nM at Cytochrome P450 2D6. This compound yielded an IC50 at Cytochrome P450 2C9 of 1980 nM. Also, the K on Cytochrome P450 3A4 came to 0.08 min⁻¹. The microsomal CLint in series [9] came to 62 µL/min/mg; in series [10], 35 µL/min/mg; in series [11] it was 60 µL/min/mg; in series [12], 121 µL/min/mg; in [13], 27 µL/min/mg.
`C[C@@H]1COCCN1c1nc(C2CCOCC2)nc2sc(-c3cc[nH]n3)nc12` registered a K on Cytochrome P450 3A4 of 0.003 min⁻¹. In [1], the IC50 was 6.3 nM. Besides, the solubility in [2] worked out at 9 µg/mL (≈ 23.3 µM). The microsomal CLint at 1 µM in series [3] was determined as 37 µL/min/mg.
With `C[C@@H]1COCCN1c1nc(N2CCOC[C@@H]2C)nc2sc(-c3cn[nH]n3)nc12`, the efflux ratio in the series on MDR1 worked out at 0.65. For the same compound, on Cytochrome P450 3A4, the K amounted to 0.01 min⁻¹. Besides, in [1], the IC50 is 6.9 nM.
On Cytochrome P450 3A4, `C[C@@H]1COCCN1c1ncnc2sc(-c3cc[nH]n3)nc12` yielded a K of 0.006 min⁻¹. The IC50 in series [1] was determined as 603 nM. Further, the microsomal CLint at 1 µM in series [3] was 100 µL/min/mg.
At Cytochrome P450 3A4, `C[C@@H]1COCCN1c1nc(N2CCOC[C@@H]2C)nc2sc(-c3cn[nH]c3)nc12` displayed a K of 0.02 min⁻¹. The IC50 in series [1] worked out at 56 nM.
In turn, `C[C@@H]1COCCN1c1nc(N2CCCOCC2)nc2sc(-c3cc[nH]n3)nc12` gave a K on Cytochrome P450 3A4 of 0.011 min⁻¹. The IC50 in [1] turned out to be 2.7 nM. Also, the solubility in [2] is less than 2 µg/mL. Also, the microsomal CLint at 1 µM in series [3] came out at 164 µL/min/mg.
`C[C@@H]1COCCN1c1nc(N2CCOC[C@@H]2C)nc2sc(-c3c[nH]cn3)nc12`: the efflux ratio in the series with MDR1 stood at 0.89. This compound also had a K at Cytochrome P450 3A4 of 0.013 min⁻¹. For the same compound, the concentration for half-maximal inhibition (IC50) in [1] stood at 7.8 nM.
`C[C@@H]1COCCN1c1nc(CN2CCOCC2)nc2sc(-c3cc[nH]n3)nc12` returned a K on Cytochrome P450 3A4 of 0.008 min⁻¹. Besides, in series [1], the half-inhibitory concentration (IC50) was 92 nM. Besides, in series [2], the concentration in solution (solubility) was 325 µg/mL (≈ 809 µM). Further, the microsomal CLint at 1 µM in series [3] is more than 924 µL/min/mg.
`CC(C)c1nc(N2CCOC[C@H]2C)c2nc(-c3cc[nH]n3)sc2n1` came in with a K at Cytochrome P450 3A4 of 0.012 min⁻¹. Moreover, the IC50 in [1] was 3.7 nM. In series [2], this compound showed a solubility of less than 1 µg/mL. Further, the microsomal CLint at 1 µM in series [3] was found to be 104 µL/min/mg.
On to `CO[C@H]1C[C@@H]2CC[C@@H](C)[C@@](O)(O2)C(=O)C(=O)N2CCCC[C@H]2C(=O)O[C@H]([C@H](C)C[C@@H]2CC[C@@H](OCCO)[C@H](OC)C2)CC(=O)[C@H](C)/C=C(\C)[C@@H](O)[C@@H](OC)C(=O)[C@H](C)C[C@H](C)/C=C/C=C/C=C/1C` [EVEROLIMUS], for which, in the series on Cortical neurone [14], the inhibition entry was “Active”. The same compound returned an IC50 in the series on Cortical neurone [15] of 0.15 nM. In the series with Mus musculus, the Activity is 100%.
With `C[C@@H]1COCCN1c1nc(N2CCOC[C@@H]2C)nc2sc(-c3cccc4[nH]ccc34)nc12`, the K on Cytochrome P450 3A4 stood at 0.027 min⁻¹. The half-inhibitory concentration (IC50) in series [1] came out at 305 nM.
